Measurements published in US20260207654A1, “HEPARAN SULFATE AND ITS MIMETICS AS CHEMOKINE INHIBITORS” (INDIAN INSTITUTE OF SCIENCE EDUCATION AND RESEARCH, priority 2021, published 2026).

Tests used:
Test in all cases: Chemokine glycan microarray binding assay
Settings in all cases: maximum RFU set as 100% binding, average across 2 glycan concentrations and 3 chemokine dilutions (n=6)
CCL13 = CCL13 (Homo sapiens, UniProt Q99616)
Procedure: (§1) Microarray Studies: The compounds of the present invention were covalently immobilized on epoxy group collated glass slides. Slides were rehydrated with dH2O and incubated for 30 min in a staining dish with 50° C. prewarmed ethanolamine (0.05 M) in Tris-HCl (0.1 M, pH 9.0) to block the remaining reactive epoxy groups on the slide surface, then washed with 50° C. prewarmed dH2O. Slides were centrifuged at 200 g for 3 min, then fitted with the ProPlate Multi-Array 16-well slide module (Grace Bio-lab P37001) to divide into the subarrays (blocks). Slides were washed with PBST (0.1% Tween 20), aspirated, and blocked with 200 μL/subarray of blocking buffer (PBS pH 7.3+1% w/v ovalbumin) for 1 h at RT with gentle shaking. Next, the blocking solution was aspirated and 100 μL/block of primary chemokines diluted in PBS pH 7.3+1% w/v ovalbumin were incubated with gentle shaking for 2 hours at RT. Slides were washed 4 times with PBST, then with PBS (without Tween-20) for 2 min. Bound antibodies were detected by incubating with biotinylated secondary detections (1 ng/μL) diluted in PBS, 200 μL/block at RT for 1 h. Slides were washed 4 times with PBST, then with PBS (without Tween-20) for 2 min and biotinylated antibodies were detected with Cy3-SA ([…]). Slides were washed 4 times with PBST, then with PBS for 10 min followed by removal from the ProPlate Multi-Array slide module and immediately dipping in a staining dish with dH2O for 10 min with shaking. The slides were then centrifuged at 200 g for 3 min, and the dry slides immediately scanned. Binding was tested at three serial dilutions, then detected with the relevant biotinylated secondary antibody (1 μg/mL) followed by Cy3-strepavidin (1.5 μg/mL). Arrays were scanned and RFUs were calculated of chemokines binding to 100 μM glycans printed at four replicates. Rank binding of chemokines (each at three dilutions) to glycans printed at four replicates each was calculated and summarized in Table 1. For each binding assay per printed block, the maximum RFU was determined and set as 100% binding. Then, binding to all other glycans in the same block was ranked in comparison to the maximal binding, and average rank binding (and SEM) for each glycan across the three examined concentrations of each chemokine was calculated. This analysis allowed to compare the glycan-binding profiles of the different chemokines and dissect their binding preferences.
(§2) Table 1. Chemokine glycan microarray binding assay. Binding was tested at 3 serial dilutions, then detected with the relevant biotinylated secondary antibody (1 μg/ml) followed by Cy3-Strepavidin (1.5 μg/ml) (Table SX). Arrays were scanned, relative fluorescent units (RFU) obtained, and maximum RFU determined and set as 100% binding. Then rank binding (per printed glycan per concentration, per each chemokine dilution, per printed block) was determined. Since each glycans was printed at 2 concentration, 100% binding was set separately for each concentration. Then, binding to all the other glycans at the same concentration was ranked in comparison to the maximal binding, and the average rank binding and SEM for each glycan across the two glycan concentrations and three examined dilutions of each chemokine was calculated (n=6, 2 glycan concentrations across 3 chemokine dilutions). This analysis allowed to compare the glycan binding profiles of the different chemokines and dissect their binding preferences. The mean rank is shown as a heatmap of all the examined binding assays together (red highest, blue lowest and white 50th percentile of ranking).

CCL2 = CCL2 (Homo sapiens, UniProt P13500)
Procedure: as §1, §2

CCL21 = target: T1, CCL21 (Homo sapiens, UniProt O00585)
T1 sequence (O00585 24-134): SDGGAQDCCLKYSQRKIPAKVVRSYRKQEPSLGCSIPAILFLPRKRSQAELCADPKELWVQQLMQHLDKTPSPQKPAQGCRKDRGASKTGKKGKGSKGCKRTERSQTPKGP
Procedure: as §1, §2

CCL28 = target: T2, CCL28 (Homo sapiens, UniProt Q9NRJ3)
T2 sequence (Q9NRJ3 20-127): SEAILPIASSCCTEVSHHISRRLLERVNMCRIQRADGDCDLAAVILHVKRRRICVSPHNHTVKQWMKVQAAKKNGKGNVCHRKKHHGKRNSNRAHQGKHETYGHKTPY
Procedure: as §1, §2

CCL5 = target: T3, CCL5 (Homo sapiens, UniProt P13501)
T3 sequence (P13501 24-91): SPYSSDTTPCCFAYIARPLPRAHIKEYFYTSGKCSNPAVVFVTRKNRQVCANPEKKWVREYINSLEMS
Procedure: as §1, §2

CCL7 = CCL7 (Homo sapiens, UniProt P80098)
Procedure: as §1, §2

CXCL10 = target: T4, CXCL10 (Homo sapiens, UniProt P02778)
T4 sequence (P02778 22-98): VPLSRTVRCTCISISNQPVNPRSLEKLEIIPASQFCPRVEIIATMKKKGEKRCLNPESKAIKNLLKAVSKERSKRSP
Procedure: as §1, §2

CXCL12 = CXCL12 (Homo sapiens, UniProt P48061)
Procedure: as §1, §2

CXCL8 = target: T5, CXCL8 (Homo sapiens, UniProt P10145)
T5 sequence (P10145 21-99): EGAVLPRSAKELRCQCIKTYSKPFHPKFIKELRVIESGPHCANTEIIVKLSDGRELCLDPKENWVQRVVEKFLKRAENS
Procedure: as §1, §2

Chain of CCL2 (P13500 24-99, species assumed): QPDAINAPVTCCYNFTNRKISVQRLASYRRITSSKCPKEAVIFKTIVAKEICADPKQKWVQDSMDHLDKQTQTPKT
Chain of CCL7 (P80098 24-99, species assumed): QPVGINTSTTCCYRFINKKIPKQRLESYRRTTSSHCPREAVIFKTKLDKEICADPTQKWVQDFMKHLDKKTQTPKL
Chain of CCL13 (Q99616 17-98, species assumed): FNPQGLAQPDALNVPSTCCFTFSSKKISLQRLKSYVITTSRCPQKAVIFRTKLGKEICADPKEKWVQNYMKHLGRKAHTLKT
Chain of CXCL12 (P48061 22-93, species assumed): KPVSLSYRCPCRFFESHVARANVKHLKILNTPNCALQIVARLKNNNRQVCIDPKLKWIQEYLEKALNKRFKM

SMILES	mean rank binding to CCL13 (CCL13) [%]	mean rank binding to CCL2 (CCL2) [%]	mean rank binding to CCL21 (CCL21) [%]	mean rank binding to CCL28 (CCL28) [%]	mean rank binding to CCL5 (CCL5) [%]	mean rank binding to CCL7 (CCL7) [%]	mean rank binding to CXCL10 (CXCL10) [%]	mean rank binding to CXCL12 (CXCL12) [%]	mean rank binding to CXCL8 (CXCL8) [%]
NCCOCCO[C@@H]1O[C@@H](C(=O)O)[C@@H](O[C@@H]2O[C@@H](C(=O)O)[C@@H](O[C@@H]3O[C@@H](C(=O)O)[C@@H](OS(=O)(=O)O)[C@H](O)[C@H]3O)[C@H](O)[C@H]2O)[C@H](O)[C@H]1O [Example 8, Ethoxy-2-aminoethoxyl-O-((4-O-sulfonato)-α-L-idopyranosyl Uronic Acid-α(1→4)-L-idopyranosyl Uronic Acid-α(1→4))-α-L-idopyranoside Uronic Acid]	72	0	60	54	10	12	23	45	13
NCCOCCO[C@@H]1O[C@@H](C(=O)O)[C@@H](O[C@@H]2O[C@@H](C(=O)O)[C@@H](O[C@@H]3O[C@@H](C(=O)O)[C@@H](OS(=O)(=O)O)[C@H](O)[C@H]3OS(=O)(=O)O)[C@H](O)[C@H]2OS(=O)(=O)O)[C@H](O)[C@H]1OS(=O)(=O)O [Example 9, Ethoxy-2-aminoethoxyl-O-(2,4-O-disulfonato)-α-L-idopyranosyl Uronic Acid-α(1→4)(2-O-sulfonato)-α-L-idopyranosyl uronic acid-α(1→4)(2-O-sulfonato)-α-L-idopyranoside Uronic Acid]	53	66	79	51	75	94	82	75	71
NCCOCCO[C@@H]1OC(C(=O)O)[C@@H](O[C@@H]2OC(C(=O)O)[C@@H](O[C@@H]3OC(C(=O)O)[C@@H](O[C@@H]4OC(C(=O)O)[C@@H](O)C(O)C4O)C(O)C3O)C(O)C2O)C(O)C1O (stereo partly drawn) [Example 10, Ethoxy-2-aminoethoxyl-O-(α-L-idopyranosyl Uronic Acid-α(1→4)-α-L-idopyranosyluronic acid-α(1→4)-α-L-idopyranosyluronic acid-α(1→4))-α-L-idopyranoside Uronic Acid]	88	69	86	76	86	87	96	98	83
NCCOCCO[C@@H]1O[C@@H](C(=O)O)[C@@H](O[C@@H]2O[C@@H](C(=O)O)[C@@H](O[C@@H]3O[C@@H](C(=O)O)[C@@H](O[C@@H]4O[C@@H](C(=O)O)[C@@H](OS(=O)(=O)O)[C@H](O)[C@H]4O)[C@H](O)[C@H]3O)[C@H](O)[C@H]2O)[C@H](O)[C@H]1O [Example 11, Ethoxy-2-aminoethoxyl-O-(4-O-sulfonato)-α-L-idopyranosyl Uronic Acid-α(1→4)-α-L-Idopyranosyl Uronic Acid-α(1→4)-α-L-idopyranosyl Uronic Acid-α(1→4)-α-L-idopyranoside Uronic Acid]	67	67	80	84	80	79	74	82	95

More lines, now with the values ahead:

mean rank binding to CCL13 (CCL13) [%]	mean rank binding to CCL2 (CCL2) [%]	mean rank binding to CCL21 (CCL21) [%]	mean rank binding to CCL28 (CCL28) [%]	mean rank binding to CCL5 (CCL5) [%]	mean rank binding to CCL7 (CCL7) [%]	mean rank binding to CXCL10 (CXCL10) [%]	mean rank binding to CXCL12 (CXCL12) [%]	mean rank binding to CXCL8 (CXCL8) [%]	SMILES
21	0	23	21	1	1	11	11	2	CC(=O)NC1C(O)[C@H](O)C(CO)O[C@@H]1O[C@@H]1C(C(=O)O)O[C@@H](O[C@@H]2C(CO)O[C@H](O[C@@H]3C(C(=O)O)O[C@@H](OCCCN)C(OS(=O)(=O)O)C3O)C(NC(C)=O)C2O)C(OS(=O)(=O)O)C1O (stereo partly drawn) [Example 14, 3-Aminopropyl-O-[(2-acetamido-2-deoxy-α-D-glucopyranosyl)-(1→4)-O-(2-O-sulfonato-α-L-idopyranosyluronate)-(1→4)-O-(2-acetamido-2-deoxy-α-D-glucopyranosyl)]-(1→4)-O-2-O-sulfonato-α-L-idopyranosiduronate]
64	3	62	36	3	45	39	51	13	NCCCO[C@@H]1OC(C(=O)O)[C@@H](O[C@H]2OC(CO)[C@@H](O[C@@H]3OC(C(=O)O)[C@@H](O[C@H]4OC(CO)[C@@H](O)C(O)C4N)C(O)C3O)C(O)C2N)C(O)C1O (stereo partly drawn) [Example 15, 3-Aminopropyl-O-[(2-amino-2-deoxy-α-D-glucopyranosyl)-(1→4)-O-(α-L-idopyranosyluronate)-(1→4)-O-(2-amino-2-deoxy-α-D-glucopyranosyl)]-(1→4)-O-α-L-idopyranosiduronate]
24	0	27	22	1	2	14	16	3	CC(=O)NC1C(O)[C@H](O)C(CO)O[C@@H]1O[C@@H]1C(C(=O)O)O[C@@H](O[C@@H]2C(CO)O[C@H](O[C@@H]3C(C(=O)O)O[C@@H](OCCCN)C(O)C3O)C(NC(C)=O)C2O)C(O)C1O (stereo partly drawn) [Example 16, 3-Aminopropyl-O-[(2-acetamido-2-deoxy-α-D-glucopyranosyl)-(1→4)-O-(α-L-idopyranosyluronate)-(1→4)-O-(2-acetamido-2-deoxy-α-D-glucopyranosyl)]-(1→4)-O-α-L-idopyranosiduronate]
